# Test results: US20050031661A1, “Attractants for moths” (priority 2003, published 2005)
# Legend:
# [1] = tested on: corn earworm moths; experiment: Single component floral lures, 2001 field season (Example 3); type: in vivo, Helicoverpa zea; settings: Universal Moth Traps baited with individual floral chemicals from polypropylene vials
# From the text: (§1) Materials and Methods. The Universal Moth Trap (Great Lakes IPM, Vestaburg, Mich.) was used in all tests, with a 6 cm^2 piece of Vaportape® (Hercon Environmental Inc., Emigsville, Pa.) in each trap bucket to kill captured moths. The trap is an opaque white bucket with a yellow cone and green lid. Traps were hung from stakes in the weedy borders around irrigated fields in the vicinity of sweet corn and alfalfa, near Mattawa, Grant County, Wash. Traps were placed 12 meters apart in a north to south orientation, because of prevailing westerly winds.
# (§2) A randomized complete block design was used, and treatments (trap lures) were randomized each time that traps were checked. Traps were checked twice per week, and insects were placed in pre-labeled plastic bags for transport to the laboratory where they were stored in a freezer until processed. Moths were sorted by sex and identified to species with the aid of a dissecting microscope.
# β-Pinene, R-(+)-alpha-pinene, (S)-(−)-limonene, β-myrcene, phenylacetaldehyde, methyl salicylate, and methyl-2-methoxybenzoate were purchased from Aldrich Chemical Inc. (Milwaukee, Wis.). (R)-(+)-limonene was purchased from Acros Chemical Co. (Milwaukee, Wis.).
# (§3) Unless reported otherwise, polypropylene vials (8 ml) were used as dispensers for release of chemicals tested following the methods of Landolt et al., 2001, supra. Chemicals (5 ml) were pipetted onto cotton in the bottom of the vial. Holes made in the lids (3 mm diameter) permitted the escape of volatilized chemicals from the vials. Vials were suspended with wire near the bottom of the inside of the bucket of the trap. When more than one chemical was used to bait a trap, a separate vial was used for each chemical. Dispensers were replaced every 2 weeks when experiments lasted longer than two weeks.
# A second comparison of floral compounds was made in the 2001 field season, for attractiveness to corn earworm moths. These chemicals were phenylacetaldehyde, methyl salicylate, racemic limonene, methyl-2-methoxybenzoate, […], (S)-beta pinene, and β-myrcene. Five replicate blocks, each including these seven chemical treatments and an unbaited trap as a control, were set up on 3 Jul. 2001 and were maintained until 27 Jul. 2001.
# (§4) Trap catch data were subjected to an ANOVA and treatment means were separated using Tukey's test, following a significant F value in the ANOVA.
# [2] = tested on: alfalfa looper moths; experiment: Single component floral lures, Universal moth trap captures (Example 2); type: in vivo, Autographa californica; settings: Universal moth traps baited with individual floral chemicals dispensed from polypropylene vials (5 ml, 3 mm hole)
# From the text: (§5) Materials and Methods. A multi-colored version of the Universal Moth Trap, or UniTrap® (AgriSense, sold by Great Lakes IPM, Vestaburg, Mich.), was used in all experiments. The trap is an opaque white bucket beneath a yellow cone and a green lid. A 2.5×2.5 cm piece of Vaportape® (Hercon Environmental, Emigsville, Pa.) was placed in each trap bucket as a killing agent. Traps were hung from stakes at a height of about one meter in uncultivated areas adjacent to fields of alfalfa or directly within alfalfa fields. Traps were placed 12 meters apart in a north to south orientation, because of prevailing westerly winds.
# (§6) For all experiments, a randomized complete block design was used, and treatments were randomized each time traps were checked. Traps were checked twice per week, at which time all insects in the traps were placed in pre-labeled plastic bags for transport to the laboratory. Moths were identified and sorted by sex under a dissecting microscope.
# (§7) β-Pinene, (R)-(+)-α-pinene, (S)-(−)-limonene, β-myrcene, phenylacetaldehyde, methyl salicylate, and methyl-2-methoxybenzoate were purchased from Aldrich Chemical Co. (Milwaukee, Wis.). (R)-(+)-limonene was purchased from Acros Chemical Co. (Milwaukee, Wis.).
# (§8) Polypropylene vials (8 ml) were used as dispensers for release of chemicals tested, following the methods used in Landolt et al., 2001, supra. Chemicals (5 ml) were pipetted onto cotton in the bottom of the vial. Holes made in vial lids (3 mm diameter) permitted the escape of volatilized chemicals. Vials were suspended with wire near the bottom of the inside of the bucket of the UniTrap®. When more than one chemical was used to bait a trap, a separate vial was used for each chemical. Dispensers were replaced after two weeks when experiments lasted longer than two weeks.
# (§9) A comparison was made of moth captures in traps baited with seven different chemicals that are emitted by flowers. These chemicals were phenylacetaldehyde, (included as a positive control and standard for comparison), methyl salicylate, racemic limonene, methyl-2-methoxybenzoate, (R)-(+)-α-pinene, (S)-(−)-β-pinene, and β-myrcene. Five replicate blocks, each including these seven chemical treatments and an unbaited trap, were set up on 18 May 2001 and were maintained until 1 Jun. 2001. The study was conducted at an experimental farm about 20 km east of the town of Moxee, in Yakima County, Wash. The same study was conducted again 3-27 July 2001 near Mattawa, Grant County, Wash., in order to take advantage of cabbage looper populations that became apparent in mid summer.
# as §4
# [3] = tested on: cabbage looper moths; experiment: as above; type: in vivo, Trichoplusia ni; settings: Universal moth traps baited with individual floral chemicals dispensed from polypropylene vials (5 ml, 3 mm hole)
# From the text: as §5, §6, §7, §8, §9, §4
# [4] = tested on: corn earworm moths; experiment: Single component floral lures, 2000 field season (Example 3); type: in vivo, Helicoverpa zea; settings: Universal Moth Traps baited with individual floral chemicals from polypropylene vials
# From the text: as §1, §2, §3
# During the 2000 field season, seven floral compounds were evaluated for attractiveness to corn earworm moths, testing them as lures in traps. These compounds were phenylacetaldehyde, benzyl alcohol, benzyl aldehyde, benzyl acetate, cis jasmone, linalool and phenethyl alcohol. A randomized complete block design was used, with 5 replicate blocks set up. Each block included an unbaited trap as a control.
# as §4
# [5] = tested on: alfalfa looper moth; settings: Landolt et al., 2001; cited from earlier work
# [6] = tested on: corn earworm moths; experiment: Double component Test 6, combinations with benzyl alcohol; type: in vivo, Helicoverpa zea; settings: single and double component combinations dispensed from vials
# From the text: as §1, §2
# as §3, with “When more than one chemical was used to bait a trap, a separate vial was used for each chemical. Dispensers were replaced every 2 weeks when experiments lasted longer than two weeks.” left out
# [7] = tested on: alfalfa looper moths; experiment: Double component blends, benzyl acetate plus, trap captures; type: in vivo, Autographa californica; settings: Universal moth traps; benzyl acetate (BA) alone, PAA alone, or BA plus second chemical in separate vials
# From the text: as §5, §6
# as §8, with “When more than one chemical was used to bait a trap, a separate vial was used for each chemical. Dispensers were replaced after two weeks when experiments lasted longer than two weeks.” left out
# [8] = tested on: corn earworm moths; experiment: Double component Test 7, linalool, benzyl aldehyde, phenethyl alcohol combinations; type: in vivo, Helicoverpa zea; settings: single and double component combinations dispensed from vials
# From the text: as §1, §2, §3
# Seven double component tests were conducted. For each two-component combinations, two vials were placed in the bucket of the trap; one vial containing phenylacetaldehyde and the other vial containing the second chemical (excepting the use of septa as dispensers for the third double component test that involved terpenes. Five replicate blocks, each including one of each of the different two-chemical combinations as well as phenylacetaldehyde alone, were set up and were maintained for two weeks.
# Test 7. The combinations of linalool plus benzyl aldehyde, phenethyl alcohol plus benzaldehyde, and phenethyl alcohol plus linalool were compared to phenylacetaldehyde alone, linalool alone, benzyl aldehyde alone and phenethyl alcohol alone.
# as §4
# [9] = tested on: corn earworm moths; settings: Cantelo and Jacobson, 1979b; cited from earlier work
structure (smiles),measurement,setting,value
C=CC(=C)CCC=C(C)C [β-myrcene],Mean (±SE) numbers of corn earworm moths captured,[1],0.20 ± 0.10a
same,Mean (±SE) numbers of alfalfa looper moths captured,[2],0.4 ± 0.1b
same,Mean (±SE) numbers of cabbage looper moths captured,[3],0.1 ± 0.1a
COC(=O)c1ccccc1OC [methyl-2-methoxybenzoate],Mean (±SE) numbers of corn earworm moths captured,[1],3.90 ± 1.69b
same,Mean (±SE) numbers of alfalfa looper moths captured,[2],0.1 ± 0.0a
same,Mean (±SE) numbers of cabbage looper moths captured,[3],0.6 ± 0.2b
OCc1ccccc1 [benzyl alcohol],Mean (±SE) numbers of corn earworm moths captured,[4],0.15 ± 0.08a
same,Attraction of alfalfa looper moths (capture in baited traps),[5],not attracted
same,Mean (±SE) numbers of corn earworm moths captured,[6],0.10 ± 0.07a
CC(=O)OCc1ccccc1 [benzyl acetate],Mean (±SE) numbers of alfalfa looper moths captured,[7],0.37 ± 0.12c
same,Mean (±SE) numbers of corn earworm moths captured,[4],0.00 ± 0.00
same,Attraction of alfalfa looper moths (capture in baited traps),[5],attracted
CC/C=C\CC1=C(C)CCC1=O [cis-jasmone],Mean (±SE) numbers of corn earworm moths captured,[4],0.00 ± 0.00
same,Attraction of alfalfa looper moths (capture in baited traps),[5],not attracted
"CC1=CC[C@@H]2C[C@H]1C2(C)C [α-pinene, (R)-(+)-α-pinene]",Mean (±SE) numbers of corn earworm moths captured,[1],0.08 ± 0.04a
same,Mean (±SE) numbers of alfalfa looper moths captured,[2],0.0 ± 0.0a
same,Mean (±SE) numbers of cabbage looper moths captured,[3],0.1 ± 0.0a
COC(=O)c1ccccc1O [methyl salicylate],Mean (±SE) numbers of corn earworm moths captured,[1],0.10 ± 0.05a
same,Mean (±SE) numbers of alfalfa looper moths captured,[2],0.1 ± 0.0a
same,Mean (±SE) numbers of cabbage looper moths captured,[3],0.1 ± 0.1a
"C=C1CC[C@H]2C[C@@H]1C2(C)C [β-pinene, (S)-(−)-β-pinene]",Mean (±SE) numbers of corn earworm moths captured,[1],0.03 ± 0.03a
same,Mean (±SE) numbers of alfalfa looper moths captured,[2],0.0 ± 0.0a
same,Mean (±SE) numbers of cabbage looper moths captured,[3],0.0 ± 0.0a
O=CCc1ccccc1 [phenylacetaldehyde],Mean (±SE) numbers of alfalfa looper moths captured,[7],0.83 ± 0.21e
same,Mean (±SE) numbers of corn earworm moths captured,[1],2.35 ± 0.62b
same,Mean (±SE) numbers of corn earworm moths captured,[8],1.75 ± 0.43c
same,Mean (±SE) numbers of alfalfa looper moths captured,[2],4.5 ± 0.5c
same,Mean (±SE) numbers of cabbage looper moths captured,[3],7.2 ± 1.0c
same,Mean (±SE) numbers of corn earworm moths captured,[4],0.45 ± 0.22b
same,Attraction of alfalfa looper moths (capture in baited traps),[5],attracted
same,Attraction of corn earworm moths,[9],attract
same,Mean (±SE) numbers of corn earworm moths captured,[6],2.25 ± 0.35c
"OCCc1ccccc1 [Phenethyl alcohol, phenethyl alcohol]",Mean (±SE) numbers of corn earworm moths captured,[8],0.05 ± 0.05a
same,Mean (±SE) numbers of corn earworm moths captured,[4],0.00 ± 0.00
same,Attraction of alfalfa looper moths (capture in baited traps),[5],not attracted
C=C(C)[C@H]1CC=C(C)CC1 [limonene],Mean (±SE) numbers of corn earworm moths captured,[1],0.05 ± 0.05a
same,Mean (±SE) numbers of alfalfa looper moths captured,[2],0.0 ± 0.0a
same,Mean (±SE) numbers of cabbage looper moths captured,[3],0.0 ± 0.0a
C=CC(C)(O)CCC=C(C)C (centres unmarked) [linalool],Mean (±SE) numbers of corn earworm moths captured,[8],0.00 ± 0.00a
same,Mean (±SE) numbers of corn earworm moths captured,[4],0.00 ± 0.00
same,Attraction of alfalfa looper moths (capture in baited traps),[5],not attracted
"O=Cc1ccccc1 [Benzyl aldehyde, benzyl aldehyde]",Mean (±SE) numbers of corn earworm moths captured,[8],0.05 ± 0.05a
same,Mean (±SE) numbers of corn earworm moths captured,[4],0.05 ± 0.05a
same,Attraction of alfalfa looper moths (capture in baited traps),[5],not attracted
